pIC50: −log10 of the molar value. *1 amine or outer side, *2 acyl side, *3 side chain or, on linkers, in order; H or OH if unused. Where a SMILES comes first, the peptide text is derived from it. [ ]: non-standard residue; d: D form. The star is where a group is joined. Nle(5,6-dioxo,6-NHMe) = CNC(=O)C(=O)CC[C@H](N)C(=O)O; X1 = CCCCCNC(=O)C(=O)CC[C@H](N[*:1])C(=O)[*:2]; Isonicotinoyl(3-COOH) = O=C(O)c1cnccc1C(=O)*; Pro(4-oxo) = O=C1CN[C@H](C(=O)O)C1; Chg = N[C@H](C(=O)O)C1CCCCC1; Tle = CC(C)(C)[C@H](N)C(=O)O; Nle = CCCC[C@H](N)C(=O)O
Tests used:
[1] = test system: fresh citrated whole blood; experiment: Thromboelastometry (ROTEM delta) in whole blood with t-PA; details: human whole blood; for reduction of maximum clot firmness (MCF) compared to control (K): 6.25-50 μM, with t-PA; for clot lysis at 60 minutes (LI60): in the presence of 0.02% t-PA
Experimental: Thromboelastometry is a visco-elastic method for the assessment of blood coagulation. In whole blood parameters like clotting time (CT), clot formation time (CFT), maximum clot firmness (MCF) and lysis index at 60 min (LI60) were obtained using the ROTEM® delta device according to the manufacturer.
Briefly, 20 μL star-TEM® (0.2 mol/l CaCl2), 20 μL r ex-TEM® (recombinant tissue factor, phospholipids, heparin inhibitor), 10 μL inhibitor stock solution (1.8-0.23 mM), combined with 10 μL t-PA stock solution (0.72 μg/ml) to yield concentrations of 0.9-0.11 mM in 18% DMSO/PBS with 0.36 μg/ml t-PA and 300 μL fresh citrated whole blood (human, from healthy consenting donors) were mixed in a disposable cuvette. As control the inhibitor stock solution was replaced by 36% DMSO/0.36 μg/ml t-PA in PBS.

[2] = molecular target: T1, recombinant human factor XIII A-subunit (rhFXIII-A, plasma transglutaminase) (Homo sapiens, UniProt P00488); experiment: Inhibition of rec. human coagulation factor XIII (fluorescence, Abz-NE(CAD-DNP)EQVSPLILLK-OH); assay type: biochemical; details: Table 3, FXIII inhibitors; read-out: IC50 FXIII
T1 construct: His6; purchased Zedira 1027 (so in the source); T027)
T1 sequence (P00488 39-732 limits assumed): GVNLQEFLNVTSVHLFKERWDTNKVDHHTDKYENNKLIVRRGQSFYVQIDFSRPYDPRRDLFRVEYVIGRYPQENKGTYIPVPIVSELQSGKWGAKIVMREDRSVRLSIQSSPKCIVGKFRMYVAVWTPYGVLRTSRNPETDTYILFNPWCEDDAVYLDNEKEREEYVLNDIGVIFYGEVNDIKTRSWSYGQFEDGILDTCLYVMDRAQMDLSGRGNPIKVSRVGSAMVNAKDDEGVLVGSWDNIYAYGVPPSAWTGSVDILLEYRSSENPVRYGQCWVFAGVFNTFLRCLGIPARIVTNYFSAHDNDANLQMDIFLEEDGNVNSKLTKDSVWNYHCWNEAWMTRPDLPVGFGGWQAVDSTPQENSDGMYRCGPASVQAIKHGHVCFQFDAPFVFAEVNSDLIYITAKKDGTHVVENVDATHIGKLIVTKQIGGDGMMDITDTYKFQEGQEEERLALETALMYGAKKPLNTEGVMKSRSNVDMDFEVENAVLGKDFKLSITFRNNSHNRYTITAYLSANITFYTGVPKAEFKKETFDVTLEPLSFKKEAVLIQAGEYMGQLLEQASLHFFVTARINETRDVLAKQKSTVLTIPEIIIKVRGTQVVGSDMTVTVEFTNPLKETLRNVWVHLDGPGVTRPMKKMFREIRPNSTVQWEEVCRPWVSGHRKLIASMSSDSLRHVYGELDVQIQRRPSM
Experimental: Method for Inhibition Studies of Rec. Human Coagulation Factor XIII (Plasma Transglutaminase, rhFXIII-A)
(§1) 50 μg lyophilized His-tagged recombinant human factor XIII A-subunit (His6-rhFXIII, Zedira product 1027) is reconstituted in H2O (volume depends on original volume before lyophilization) resulting in a buffer containing 20 mM Tris-HCl, 150 mM NaCl, 1 mM EDTA, 1 mM DTT, 189 mg/ml maltodextrin, pH=7.5. The rhFXIII stock solution is diluted in buffer (50 mM Tris-HCl, 7.5 mM CaCl2, 150 mM NaCl, pH=7.4) to give a working solution of 59 U/ml (based on the amine-incorporation activity measured using transglutaminase activity assay #1036 (Zedira GmbH), described below).
(§2) A 10 mM inhibitor stock solution is prepared in DMSO, and from this a serial 1:2-fold dilution series is prepared also in DMSO. Each of the initial dilutions is subsequently diluted 1:50-fold with buffer (50 mM Tris-HCl, 7.5 mM CaCl2, 150 mM NaCl, pH=7.4) to yield the final working dilutions containing 2% (v/v) DMSO.
(§3) 15 μl of inhibitor working dilution are added per well of a 96 well microtiter plate. As control, 15 μl of a 2% (v/v) DMSO solution prepared using the buffer mentioned above are added per well.
(§4) 480 μl of His6-rhFXIII working solution and 120 μl human alpha thrombin (0.5 NIH units/μl) are added to 10.8 ml assay buffer (50 mM Tris-HCl, 7.5 mM CaCl2, 150 mM NaCl, 5 mM DTT, 13.4 mM glycine methylester, 50 μM Abz-NE(CAD-DNP)EQVSPLILLK-OH, (Zedira product A101; patent No.: EP 1781807B1), pH=7.4). From this master-mix solution, 285 μl are added per well containing the inhibitor. Increase in fluorescence is measured using […] and λem=418 nm at 37° C. for 35 min. A slope of the increase in fluorescence between 20 and 30 min is calculated for determination of the IC50 value (inhibitor concentration at which 50% of the initial FXIII activity is blocked).
(§5) Analysis of enzymatic activity is performed by calculation of the slope of an increase in fluorescence intensity. IC50 values are calculated by plotting the enzymatic activity (as percentage from control containing 2% DMSO instead of inhibitor) against the inhibitor concentration. IC50 is defined as the inhibitor concentration blocking 50%) of initial enzyme activity.

TG2 = molecular target: T2, TG2 (Homo sapiens, UniProt P21980); experiment: FXIII assay format using TG2 instead of FXIII (selectivity of FXIIIa blockers); assay type: biochemical; details: Table 3, selectivity with respect to TG2; read-out: IC50 TG2
T2 sequence (P21980 1-687): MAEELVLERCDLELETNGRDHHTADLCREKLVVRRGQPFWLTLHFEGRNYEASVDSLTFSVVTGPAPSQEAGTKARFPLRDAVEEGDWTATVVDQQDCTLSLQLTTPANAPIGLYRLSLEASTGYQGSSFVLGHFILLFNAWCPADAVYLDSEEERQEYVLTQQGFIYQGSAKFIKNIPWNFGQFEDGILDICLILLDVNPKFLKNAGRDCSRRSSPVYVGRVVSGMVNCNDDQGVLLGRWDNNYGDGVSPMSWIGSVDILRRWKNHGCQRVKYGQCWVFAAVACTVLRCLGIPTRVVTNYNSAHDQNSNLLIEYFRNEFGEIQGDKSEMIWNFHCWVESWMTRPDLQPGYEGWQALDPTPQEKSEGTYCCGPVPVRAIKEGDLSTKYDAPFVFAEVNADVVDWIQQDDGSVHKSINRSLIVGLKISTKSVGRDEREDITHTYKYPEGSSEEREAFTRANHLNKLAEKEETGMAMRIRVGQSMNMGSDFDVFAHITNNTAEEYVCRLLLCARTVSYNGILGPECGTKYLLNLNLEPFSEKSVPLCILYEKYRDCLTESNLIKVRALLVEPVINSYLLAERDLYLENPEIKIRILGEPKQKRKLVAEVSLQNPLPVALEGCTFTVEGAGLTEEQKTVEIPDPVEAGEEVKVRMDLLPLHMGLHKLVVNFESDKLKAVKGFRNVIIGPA
Experimental: as §1, §2, §3, §4
This assay was also used to determine selectivity of inhibitors preferentially blocking FXIIIa by using TG2 instead of FXIII.
as §5

pIC50 [2]	pIC50 (TG2)	Structure (SMILES)	reduction of maximum clot firmness (MCF) compared to control (K) [1]	clot lysis at 60 minutes (LI60) [1]
5.61	6.70	CCCC[C@H](NC(=O)[C@H](CCC(=O)C(=O)NC)NC(=O)CNC(C)=O)C(=O)N[C@H](C(=O)N[C@@H](CC(C)C)C(=O)N1CCC[C@H]1C(=O)N[C@@H](Cc1c[nH]c2ccccc12)C(N)=O)[C@@H](C)CC [Compound E34, (S)-2-(2-acetamidoacetamido)-N1-((S)-1-((2S,3S)-1-((S)-1-((S)-2-((S)-1-amino-3-(1H-indol-3-yl)-1-oxopropan-2-ylcarbamoyl)pyrrolidin-1-yl)-4-methyl-1-oxopentan-2-ylamino)-3-methyl-1-oxopentan-2-ylamino)-1-oxohexan-2-yl)-N6-methyl-5-oxohexanediamide] (Ac-G[Nle(5,6-dioxo,6-NHMe)][Nle]ILPW-NH2)		
5.71	6.28	CCCC[C@H](NC(=O)[C@H](CCC(=O)C(=O)NC)NC(=O)CNC(=O)[C@@H]1CCCN1C(C)=O)C(=O)N[C@H](C(=O)N[C@@H](CC(C)C)C(=O)N1CCC[C@H]1C(=O)N[C@@H](Cc1c[nH]c2ccccc12)C(N)=O)[C@@H](C)CC [Compound E35, (S)-2-(2-((S)-1-acetylpyrrolidine-2-carboxamido)acetamido)-N1-((S)-1-((2S,3S)-1-((S)-1-((S)-2-((S)-1-amino-3-(1H-indol-3-yl)-1-oxopropan-2-ylcarbamoyl)pyrrolidin-1-yl)-4-methyl-1-oxopentan-2-ylamino)-3-methyl-1-oxopentan-2-ylamino)-1-oxohexan-2-yl)-N6-methyl-5-oxohexanediamide] (Ac-PG[Nle(5,6-dioxo,6-NHMe)][Nle]ILPW-NH2)		
5.51	6.10	CCCC[C@H](NC(=O)[C@H](CCC(=O)C(=O)NC)NC(=O)CNC(=O)[C@@H]1CCCN1C(=O)CNC(C)=O)C(=O)N[C@H](C(=O)N[C@@H](CC(C)C)C(=O)N1CCC[C@H]1C(=O)N[C@@H](Cc1c[nH]c2ccccc12)C(N)=O)[C@@H](C)CC [Compound E36, (S)-2-(2-((S)-1-(2-acetamidoacetyl)pyrrolidine-2-carboxamido)acetamido)-N1-((S)-1-((2S,3S)-1-((S)-1-((S)-2-((S)-1-amino-3-(1H-indol-3-yl)-1-oxopropan-2-ylcarbamoyl)pyrrolidin-1-yl)-4-methyl-1-oxopentan-2-ylamino)-3-methyl-1-oxopentan-2-ylamino)-1-oxohexan-2-yl)-N6-methyl-5-oxohexanediamide] (Ac-GPG[Nle(5,6-dioxo,6-NHMe)][Nle]ILPW-NH2)		
5.60	6.41	CCCC[C@H](NC(=O)[C@H](CCC(=O)C(=O)NC)NC(=O)CNC(=O)[C@@H]1CCCN1C(=O)CNC(=O)[C@H](CC(C)C)NC(C)=O)C(=O)N[C@H](C(=O)N[C@@H](CC(C)C)C(=O)N1CCC[C@H]1C(=O)N[C@@H](Cc1c[nH]c2ccccc12)C(N)=O)[C@@H](C)CC [Compound E37, (S)-2-(2-((S)-1-(2-((S)-2-acetamido-4-methylpentanamido)acetyl)pyrrolidine-2-carboxamido)acetamido)-N1-((S)-1-((2S,3S)-1-((S)-1-((S)-2-((S)-1-amino-3-(1H-indol-3-yl)-1-oxopropan-2-ylcarbamoyl)pyrrolidin-1-yl)-4-methyl-1-oxopentan-2-ylamino)-3-methyl-1-oxopentan-2-ylamino)-1-oxohexan-2-yl)-N6-methyl-5-oxohexanediamide] (Ac-LGPG[Nle(5,6-dioxo,6-NHMe)][Nle]ILPW-NH2)		

Structure (SMILES)	pIC50 [2]	pIC50 (TG2)	reduction of maximum clot firmness (MCF) compared to control (K) [1]	clot lysis at 60 minutes (LI60) [1]
CNC(=O)C(=O)CC[C@H](NC(=O)c1ccncc1C(=O)O)C(=O)N[C@H](C(=O)N1CC(=O)C[C@H]1C(=O)N[C@H](C(=O)N[C@H](C(N)=O)C1CCCCC1)C1CCCCC1)C(C)(C)C [Compound E25, 4-((S)-1-((S)-1-((S)-2-((S)-2-((S)-2-amino-1-cyclonexyl-2-oxoethylamino)-1-cyclonexyl-2-oxoethylcarbamoyl)-4-oxopyrrolidin-1-yl)-3,3-dimethyl-1-oxobutan-2-ylamino)-6-(methylamino)-1,5,6-trioxohexan-2-ylcarbamoyl)nicotinic acid] ({Isonicotinoyl(3-COOH)}-[Nle(5,6-dioxo,6-NHMe)][Tle][Pro(4-oxo)][Chg][Chg]-NH2)	7.30	5.26	dose dependent influence	dose dependent influence
CCCCCNC(=O)C(=O)CC[C@H](NC(=O)c1ccncc1C(=O)O)C(=O)N[C@H](C(=O)N1CC(=O)C[C@H]1C(=O)N[C@H](C(=O)N[C@H](C(N)=O)C1CCCCC1)C1CCCCC1)C(C)(C)C [Compound E27, 4-((S)-1-((S)-1-((S)-2-((S)-2-((S)-2-amino-1-cyclohexyl-2-oxoethylamino)-1-cyclohexyl-2-oxoethylcarbamoyl)-4-oxopyrrolidin-1-yl)-3,3-dimethyl-1-oxobutan-2-ylamino)-6-1,5,6-trioxo-6-(pentylamino)hexan-2-ylcarbamoyl)nicotinic acid] ({Isonicotinoyl(3-COOH)}-[X1][Tle][Pro(4-oxo)][Chg][Chg]-NH2)	7.22	5.11	dose dependent influence	dose dependent influence

From patent publication US11072634B2, “Inhibitors of transglutaminases” (Zedira GmbH, priority 2016, dated 2021)
